Results: US20240287070A1, “FUSED HETEROCYCLIC DERIVATIVES” (Janssen Sciences Ireland Unlimited Company, priority 2021, published 2024)

How the values were obtained:
[1] = Human liver microsome stability; assay type: in vitro ADME; conditions: 1 μM compound, NADPH 1 mM, 37° C., 0-60 min; for HLM Metabolism t1/2: pooled human liver microsomes 0.5 mg/mL; for half-life at 1 μM: human, pooled human liver microsomes, pH 7.4, pooled human liver microsomes 0.5 mg/mL, read-out: HLM Metabolism t1/2
Procedure: Human Liver Microsome Stability t½ (Min) of Compounds of Formula (I) […] All incubations are performed singularly for each compound. NADPH was added to initiate the reaction with the final concentration of 1 mM and the final incubation volume of 400 μL. At 6 time points (0, 5, 10, 20, 40 and 60 min) reactions were stopped by the removal of 50 μL of the incubation mixture into plates containing acetonitrile at a of 1:3 (v:v). The plates were centrifuged at 3000 rpm for 10 min at 4° C. to precipitate the protein. Following protein precipitation, the sample supernatants were combined in cassettes of up to 8 compounds. The internal standard was added (1:1 supernatant to internal standard solution) and samples were analyzed using standard LC-MS conditions. From a plot of ln peak area ratio (compound peak area/internal standard peak area) against time, the gradient of the line is determined. Subsequently, half-life is calculated using the equations below: Elimination rate constant (k)=(−gradient) […]

[2] = tested on: HBV (HepG2.117 cell line, inducibly HBV producing); assay: Anti-HBV activity, intracellular HBV DNA by real-time PCR in HepG2.117 cell line; assay type: cell-based, hepatitis B virus; conditions: HepG2.117 cells, 3 days of treatment
Procedure: The anti HBV activity was measured using the HepG2.117 cell line, a stable, inducibly HBV producing cell line, which replicates HBV in the absence of doxycycline (Tet-off system). The HepG2 cell line is available from ATCCR under number HB-8065. Transfection of the HepG2 cell line can be as described in Sun and Nassal 2006 Journal of Hepatology 45 (2006) 636-645 “Stable HepG2- and Huh7-based human hepatoma cell lines for efficient regulated expression of infectious hepatitis B virus”.
For the antiviral assay, HBV replication was induced, followed by a treatment with serially diluted compound in 96-well plates. After 3 days of treatment, the antiviral activity was determined by quantification of intracellular HBV DNA using real-time PCR and an HBV specific primer set and probe.

[3] = Cytotoxicity, ATPlite Luminescence Assay; assay type: cell-based, human; conditions: human, HepG2 or HepG2.117 cells, 3-days incubation unless marked with *
Procedure: Cytotoxicity of the compounds was tested using HepG2 or HepG2.117 cells, incubated for 3 or 4 days in the presence of compounds. The viability of the cells was assessed using the PERKIN ELMER ATPlite Luminescence Assay System.”

[4] = Hepatitis B virus, HepG2.117, 72 h

In the case of `Cc1ccc(C(C)N2C[C@@H](C)n3nc4c(c3C2=O)CN(C(=O)c2ccc(Cl)c(Cl)c2)[C@H](C)C4)nn1` (single isomer, unassigned) [Compound 6A, (3R,7R)-2-(3,4-dichlorobenzoyl)-3,7-dimethyl-9-((R*)-1-(6-methylpyridazin-3-yl)ethyl)-1,2,3,4,8,9-hexahydropyrido[4′,3′:3,4]pyrazolo[1,5-a]pyrazin-10(7H)-one], the “HLM Metabolism t1/2” value [1] is reported as 1.18 h, the EC50 [2, 4] is reported as 0.086 µM and the CC50 at 3 days [3] is reported as > 50 µM.
For `Cc1ncnn1-c1ccc([C@H](C)N2C[C@@H](C)n3nc4c(c3C2=O)CN(C(=O)c2ccc(Cl)c(Cl)c2)[C@H](C)C4)cn1` (relative stereo) [Compound 25B, (3R,7R)-2-(3,4-dichlorobenzoyl)-3,7-dimethyl-9-((S*)-1-(6-(5-methyl-11H-1,2,4-triazol-1-yl)pyridin-3-yl)ethyl)-1,2,3,4,8,9-hexahydropyrido[4′,3′:3,4]pyrazolo[1,5-a]pyrazin-10(7H)-one], the half-life at 1 μM [1] was 1.49 h, the EC50 [2, 4] was 0.017 µM and the CC50 at 3 days [3] was > 50 µM.
For `C[C@@H]1Cc2nn3c(c2CN1C(=O)c1ccc(Cl)c(Cl)c1)C(=O)N([C@@H](C)c1ccc([S@](C)(=N)=O)cc1)C[C@H]3C` (relative stereo) [Compound 18C, (3R,7R)-2-(3,4-dichlorobenzoyl)-3,7-dimethyl-9-((S*)-1-(4-((R*)—S-methylsulfonimidoyl)phenyl)ethyl)-1,2,3,4,8,9-hexahydropyrido[4′,3′:3,4]pyrazolo[1,5-a]pyrazin-10(7H)-one], the half-life at 1 μM [1] was > 3 h, the EC50 [2, 4] was 0.03 µM and the CC50 at 3 days [3] was > 50 µM.
For `CC(c1ccc(-n2cncn2)cc1)N1C[C@@H](C)n2nc3c(c2C1=O)CN(C(=O)c1ccc(Cl)c(C#N)c1)[C@H](C)C3` (single isomer, unassigned) [Compound 11A, 5-((3R,7R)-9-((R*)-1-(4-(1H-1,2,4-Triazol-1-yl)phenyl)ethyl)-3,7-dimethyl-10-oxo-1,2,3,4,7,8,9,10-octahydropyrido[4′,3′:3,4]pyrazolo[1,5-a]pyrazine-2-carbonyl)-2-chlorobenzonitrile], the half-life at 1 μM [1] was > 3 h, the EC50 [2, 4] was 0.039 µM and the CC50 at 3 days [3] was > 50 µM.
In the case of `CC(c1ccc(C(F)(F)F)nc1)N1C[C@@H](C)n2nc3c(c2C1=O)CN(C(=O)c1ccc(Cl)c(C#N)c1)[C@H](C)C3` (single isomer, unassigned) [Compound 12A, 2-Chloro-5-((3R,7R)-3,7-dimethyl-10-oxo-9-((R*)-1-(6-(trifluoromethyl)pyridin-3-yl)ethyl)-1,2,3,4,7,8,9,10-octahydropyrido[4′,3′:3,4]pyrazolo[1,5-a]pyrazine-2-carbonyl)benzonitrile], the half-life at 1 μM [1] is reported as > 3 h, the EC50 [2] is reported as 0.6 µM and the CC50 at 3 days [3] is reported as > 50 µM.
In the case of `CC(c1ccc(C(C)(C)O)nc1)N1C[C@@H](C)n2nc3c(c2C1=O)CN(C(=O)c1cc(Cl)c(Cl)cn1)[C@H](C)C3` (single isomer, unassigned) [Compound 57A, (3R,7R)-2-(4,5-dichloropicolinoyl)-9-((R*)-1-(6-(2-hydroxypropan-2-yl)pyridin-3-yl)ethyl)-3,7-dimethyl-1,2,3,4,8,9-hexahydropyrido[4′,3′:3,4]pyrazolo[1,5-a]pyrazin-10(7H)-one], the half-life at 1 μM [1] is reported as > 3 h, the EC50 [2] is reported as > 2.5 µM and the CC50 at 3 days [3] is reported as > 50 µM.
For `C[C@@H]1Cc2nn3c(c2CN1C(=O)c1ccc(Cl)c(C#N)c1)C(=O)N([C@H](C)c1ccc(OC(F)F)cc1)CC3` [Ref 1, reference compound], the half-life at 1 μM [1] was 0.583 h, the EC50 [2, 4] was 0.095 µM and the CC50 at 3 days [3] was > 12.5 µM.
In the case of `CC(c1ccnc(OC(F)F)c1)N1C[C@@H](C)n2nc3c(c2C1=O)CN(C(=O)c1ccc(Cl)c(C(F)(F)F)c1)[C@H](C)C3` (single isomer, unassigned) [Compound 50A, (3R,7R)-2-(4-chloro-3-(trifluoromethyl)benzoyl)-9-((R*)-1-(2-(difluoromethoxy)pyridin-4-yl)ethyl)-3,7-dimethyl-1,2,3,4,8,9-hexahydropyrido[4′,3′:3,4]pyrazolo[1,5-a]pyrazin-10(7H)-one], the half-life at 1 μM [1] is reported as > 3 h, the EC50 [2] is reported as 0.066 µM and the CC50 at 3 days [3] is reported as 12.5 µM.
In the case of `CC(c1ccc(C(C)(C)O)nc1)N1C[C@@H](C)n2nc3c(c2C1=O)CN(C(=O)c1ccc(Cl)c(F)c1)[C@H](C)C3` (single isomer, unassigned) [Compound 59A, (3R,7R)-2-(4-chloro-3-fluorobenzoyl)-9-((R*)-1-(6-(2-hydroxypropan-2-yl)pyridin-3-yl)ethyl)-3,7-dimethyl-1,2,3,4,8,9-hexahydropyrido[4′,3′:3,4]pyrazolo[1,5-a]pyrazin-10(7H)-one], the half-life at 1 μM [1] is reported as > 3 h, the EC50 [2] is reported as 0.51 µM and the CC50 at 3 days [3] is reported as > 50 µM.
With `CC(c1ccc(C(C)(C)O)nc1)N1C[C@@H](C)n2nc3c(c2C1=O)CN(C(=O)c1ccc(Cl)c(C(F)(F)F)n1)[C@H](C)C3` (single isomer, unassigned) [Compound 62A, (3R,7R)-2-(5-chloro-6-(trifluoromethyl)picolinoyl)-9-((R*)-1-(6-(2-hydroxypropan-2-yl)pyridin-3-yl)ethyl)-3,7-dimethyl-1,2,3,4,8,9-hexahydropyrido[4′,3′:3,4]pyrazolo[1,5-a]pyrazin-10(7H)-one] the half-life at 1 μM [1] was > 3 h, the EC50 [2] was 0.61 µM and the CC50 at 3 days [3] was > 50 µM.
For `CC(c1ccn(C(F)F)c(=O)c1)N1C[C@@H](C)n2nc3c(c2C1=O)CN(C(=O)c1ccc(Cl)c(C(F)(F)F)c1)[C@H](C)C3` (single isomer, unassigned) [Compound 49A, (3R,7R)-2-(4-chloro-3-(trifluoromethyl)benzoyl)-9-((R*)-1-(1-(difluoromethyl)-2-oxo-1,2-dihydropyridin-4-yl)ethyl)-3,7-dimethyl-1,2,3,4,8,9-hexahydropyrido [4′,3′:3,4]pyrazolo[1,5-a]pyrazin-10(7H)-one], the “HLM Metabolism t1/2” value [1] was 1.32 h, the EC50 [2] was 0.041 µM and the CC50 at 3 days [3] was > 50 µM.
For `CC(c1ncccn1)N1C[C@@H](C)n2nc3c(c2C1=O)CN(C(=O)c1ccc(Cl)c(Cl)c1)[C@H](C)C3` (single isomer, unassigned) [Compound 39A, (3R,7R)-2-(3,4-dichlorobenzoyl)-3,7-dimethyl-9-((R*)-1-(pyrimidin-2-yl)ethyl)-1,2,3,4,8,9-hexahydropyrido[4′,3′:3,4]pyrazolo[1,5-a]pyrazin-10(7H)-one], the half-life at 1 μM [1] was 1.59 h, the EC50 [2] was 0.13 µM and the CC50 at 3 days [3] was > 50 µM.
In the case of `CC(c1cnn(C)c(=O)c1)N1C[C@@H](C)n2nc3c(c2C1=O)CN(C(=O)c1ccc(Cl)c(C(F)(F)F)c1)[C@H](C)C3` (single isomer, unassigned) [Compound 52A, (3R,7R)-2-(4-chloro-3-(trifluoromethyl)benzoyl)-3,7-dimethyl-9-((R*)-1-(1-methyl-6-oxo-1,6-dihydropyridazin-4-yl)ethyl)-1,2,3,4,8,9-hexahydropyrido [4′,3′:3,4]pyrazolo[1,5-a]pyrazin-10(7H)-one], the “HLM Metabolism t1/2” value [1] is reported as 1.48 h, the EC50 [2] is reported as 0.12 µM and the CC50 at 3 days [3] is reported as > 50 µM.
With `CC(c1cc(F)ccn1)N1C[C@@H](C)n2nc3c(c2C1=O)CN(C(=O)c1ccc(Cl)c(Cl)c1)[C@H](C)C3` (single isomer, unassigned) [Compound 32A] the half-life at 1 μM [1] was 1.68 h, the EC50 [2] was 0.016 µM and the CC50 at 3 days [3] was > 50 µM.
For `CC(c1cc(F)c(=O)n(C)c1)N1C[C@@H](C)n2nc3c(c2C1=O)CN(C(=O)c1ccc(Cl)c(Cl)c1)[C@H](C)C3` (single isomer, unassigned) [Compound 45B, (3R,7R)-2-(3,4-dichlorobenzoyl)-9-((S*)-1-(5-fluoro-1-methyl-6-oxo-1,6-dihydropyridin-3-yl)ethyl)-3,7-dimethyl-1,2,3,4,8,9-hexahydropyrido[4′,3′:3,4]pyrazolo [1,5-a]pyrazin-10(7H)-one], the half-life at 1 μM [1] was > 3 h, the EC50 [2, 4] was 0.027 µM and the CC50 at 3 days [3] was > 50 µM.
In the case of `C[C@@H]1Cc2nn3c(c2CN1C(=O)c1ccc(Cl)c(Cl)c1)C(=O)N([C@H](C)c1ccc(C#N)cc1)CC3` [Ref 4, reference compound], the CC50 at 3 days [3] is reported as > 50 µM.
In the case of `CC(c1ccccn1)N1CCn2nc3c(c2C1=O)CN(C(=O)c1ccc(Cl)c(Cl)c1)[C@H](C)C3` (mixture of isomers) [Ref 3, reference compound], the CC50 at 3 days [3] is reported as > 50 µM.
In the case of `C[C@@H]1Cc2nn3c(c2CN1C(=O)c1ccc(Cl)c(Cl)c1)C(=O)N([C@@H](C)c1ccc(C#N)cc1)CC3` [Ref 5, reference compound], the CC50 at 3 days [3] is reported as > 50 µM.
